Results on four compounds are retold here after patent US10092002B2, “Herbicidal composition comprising nicosulfuron or its salt and S -metolachlor or its salt” (ISHIHARA SANGYO KAISHA, LTD., priority 2011, dated 2018).

Usually inhibition stands for how much of the control response was suppressed.

Common to all, as to format: in vivo
Experiment [1] relates to sunn-hemp (Crotalaria juncea L.). Briefly: Test Example 4: soil treatment, sunn-hemp, visual growth inhibition rate. The conditions noted are these: Crotalaria juncea, soil, read-out: Growth inhibition rate (%) of sunn-hemp, Measured value. The source says: In a case where three active ingredients are combined, the activity can be similarly calculated as follows. E2=(α+β+γ)−(αβ+αγ+βγ)/100+(αβγ)/10000 where α: growth inhibition rate when treated with x (g/ha) of herbicide X,
Growth inhibition rate (%)=0 (equivalent to the non-treated area) to 100 (complete kill)
Upland field soil was put into a 1/300,000 ha pot, and seeds of sunn-hemp (Crotalaria juncea L.) were sown.

Experiment [2] has as its system common cocklebur (Xanthium strumarium L.). Briefly: Test Example 1: foliar treatment of common cocklebur in pots, visual growth inhibition rate. Particulars: Xanthium strumarium, foliar treatment at 4.3 to 4.8-leaf stage, 22nd day after treatment, read-out: Growth inhibition rate (%) of common cocklebur, Measured value. The source says:
When the herbicidal activity in a case where two active ingredients are combined, is larger than the simple sum of the respective herbicidal activities of the two active ingredients (the expected activity), it is called a synergistic effect. The activity expected by the combination of two active ingredients can be calculated as follows (Colby S. R., “Weed”, vol. 15, p. 20-22, 1967). E1=α+β-(α×β÷100) In a case where three active ingredients are combined, the activity can be similarly calculated as follows. […] Upland field soil was put into a 1/1,000,000 ha pot, and seeds of common cocklebur (Xanthium strumarium L.) were sown. […] Dual Gold, manufactured by Syngenta Crop Protection AG), SC agent containing terbuthylazine as an active ingredient (tradename: Click, manufactured by BASF), SC agent containing mesotrione as an active ingredient (tradename: Callisto, manufactured by Syngenta Crop Protection AG) and WG agent containing prosulfuron as an active ingredient (tradename: Peak, manufactured by Syngenta Crop Protection AG) were diluted with water in an amount corresponding to 1,000 Uha, and applied for foliar treatment by a small sprayer. On the 22nd day after treatment, the state of growth of the common cocklebur was visually observed to determine the growth inhibition rate in accordance with the following evaluation standard. The growth inhibition rate (%) (measured value) and the growth inhibition rate (%) (calculated value) calculated by the Colby's formula are shown in Table 1.

In experiment [3] the test system is wild oat (Avena fatua L.). Briefly: Test Example 3: soil treatment, wild oat, visual growth inhibition rate. The conditions noted are these: Avena fatua, soil treatment the day after sowing, 14th day after treatment, read-out: Growth inhibition rate (%) of wild oat, Measured value. The source says:
When the herbicidal activity in a case where two active ingredients are combined, is larger than the simple sum of the respective herbicidal activities of the two active ingredients (the expected activity), it is called a synergistic effect. The activity expected by the combination of two active ingredients can be calculated as follows (Colby S. R., “Weed”, vol. 15, p. 20-22, 1967). […] In a case where three active ingredients are combined, the activity can be similarly calculated as follows. […] On the 22nd day after treatment, the state of growth of the common cocklebur was visually observed to determine the growth inhibition rate in accordance with the following evaluation standard. The growth inhibition rate (%) (measured value) and the growth inhibition rate (%) (calculated value) calculated by the Colby's formula are shown in Table 1. […] On the 14th day after treatment, the state of growth of the wild oat was visually observed to determine the growth inhibition rate.

Structures are written as SMILES.

As to `COCCOCc1nc(C(F)(F)F)ccc1C(=O)C1=C(O)C2CCC(C2)C1=O` (centres unmarked) [Bicyclopyrone, 4-hydroxy-3-{2-[(2-methoxyethoxy)methyl]-6-(trifluoromethyl)-3-pyridylcarbonyl}bicyclo[3.2.1]oct-3-en-2-one], in experiment [1], the inhibition at 25 g/ha worked out at 0% and the inhibition at 150 g/ha stood at 20%.

For `CS(=O)(=O)c1ccc(C(=O)C2C(=O)CCCC2=O)c([N+](=O)[O-])c1` [Mesotrione, 2-(4-mesyl-2-nitrobenzoyl)cyclohexane-1,3-dione], in experiment [2] (dose 50 g/ha), the inhibition at 50 g/ha is 0%. Further, in experiment [3] (dose 25 g/ha), the inhibition at 25 g/ha was 0%. The inhibition at 150 g/ha in experiment [3] (dose 150 g/ha) worked out at 5%.

With `COc1nc(C)nc(NC(=O)NS(=O)(=O)c2ccccc2CCC(F)(F)F)n1` [Prosulfuron, 1-(4-methoxy-6-methyl-1,3,5-triazin-2-yl)-3-[2-(3,3,3-trifluoropropyl)phenylsulfonyl]urea], in experiment [2] (dose 15 g/ha), the inhibition at 15 g/ha was 88%. Further, the inhibition at 2.5 g/ha in experiment [3] (dose 2.5 g/ha) was determined as 25%. Also, the inhibition at 50 g/ha in experiment [3] (dose 50 g/ha) is 0%.

Turning to `CCNc1nc(Cl)nc(NC(C)(C)C)n1` [Terbuthylazine, N^2-tert-butyl-6-chloro-N^4-ethyl-1,3,5-triazine-2,4-diamine], the inhibition at 500 g/ha in experiment [2] (dose 500 g/ha) came to 10%. Besides, the inhibition at 250 g/ha in experiment [3] (dose 250 g/ha) is 25%. Moreover, in experiment [3] (dose 1500 g/ha), the inhibition at 1500 g/ha was determined as 5%.
